Source: patent publication US20070299087A1, “New Compounds 319” (AstraZeneca AB, priority 2006, published 2007)

Biological target: T1, human β-Secretase (sBACE-Fc) (Homo sapiens, UniProt P56817)
T1 construct: The soluble part of the human β-Secretase (AA 1-AA 460) was cloned; Fc domain of IgG1 (C); made in house
Experiment: TR-FRET assay (β-secretase enzyme, substrate (Europium)[…](Qsy7))
Assay type: biochemical
Procedure: The enzyme used in the IGEN Cleavage-, Fluorescent-, TR-FRET- and BiaCore assays is described as follows:
The soluble part of the human β-Secretase (AA 1-AA 460) was cloned into the ASP2-Fc10-1-IRES-GFP-neoK mammalian expression vector. The gene was fused to the Fc domain of IgG1 (affinity tag) and stably cloned into HEK 293 cells. Purified sBACE-Fc is stored in Tris buffer, pH 9.2 and has a purity of 95%.
Enzyme was diluted to 6 μg/mL and the substrate (Europium)[…](Qsy7) to 200 nM in reaction buffer (NaAcetate, chaps, triton x-100, EDTA pH 4.5). Compounds were diluted to the desired concentration in dimethyl sulfoxide (final dimethyl sulfoxide concentration in assay is 5%). The assay was done in a Costar 384 well round bottom, low volume, non-binding surface plate (Corning #3676). Enzyme (9 μL) and 1 μL of compound in dimethyl sulfoxide was added to the plate, mixed and pre-incubated for 10 min. Substrate (10 μL) was added and the reaction proceeded in the dark for 15 min at RT. The reaction was stopped with the addition of 7 μL NaAcetate, pH 9. The fluorescence of the product was measured on a Victor II plate reader with an excitation wavelength of 340 nm and an emission wavelength of 615 nm. […] The dimethyl sulfoxide control defined the 100% activity level and 0% activity was defined by exclusion of the enzyme (using reaction buffer instead).

T1 sequence (P56817 22-460): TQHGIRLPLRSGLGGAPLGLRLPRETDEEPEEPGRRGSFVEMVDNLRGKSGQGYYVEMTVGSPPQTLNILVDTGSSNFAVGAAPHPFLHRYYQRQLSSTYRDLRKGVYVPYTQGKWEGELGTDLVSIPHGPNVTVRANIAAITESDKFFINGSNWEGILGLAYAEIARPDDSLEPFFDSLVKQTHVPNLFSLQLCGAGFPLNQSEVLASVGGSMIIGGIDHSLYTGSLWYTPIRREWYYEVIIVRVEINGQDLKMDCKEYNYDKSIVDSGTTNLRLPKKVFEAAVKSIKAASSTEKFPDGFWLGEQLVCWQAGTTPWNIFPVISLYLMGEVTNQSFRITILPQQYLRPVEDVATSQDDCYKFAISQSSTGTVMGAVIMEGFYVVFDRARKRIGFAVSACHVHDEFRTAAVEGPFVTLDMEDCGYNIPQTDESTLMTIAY

SMILES	IC50 [nM]
NC1=NC(c2ccncc2)(c2ccc(F)c(-c3cccnc3F)c2)C2=NCC(F)(F)CN12 (stereo not shown) [Example 81, 3,3-Difluoro-8-[4-fluoro-3-(2-fluoropyridin-3-yl)phenyl]-8-pyridin-4-yl-2,3,4,8-tetrahydroimidazo[1,5-a]pyrimidin-6-amine acetate]	49
COc1cccc(-c2cc(C3(c4ccncc4)N=C(N)N4CC(F)(F)CN=C43)ccc2F)c1F (stereo not shown) [Example 82, 3,3-Difluoro-8-(2′,6-difluoro-3′-methoxybiphenyl-3-yl)-8-pyridin-4-yl-2,3,4,8-tetrahydroimidazo[1,5-a]pyrimidin-6-amine acetate]	42
NC1=NC(c2cccc(-c3cccnc3F)c2)(c2ccncc2F)C2=NCC(F)(F)CN12 (stereo not shown) [Example 90, 3,3-Difluoro-8-(3-fluoropyridin-4-yl)-8-[3-(2-fluoropyridin-3-yl)phenyl]-2,3,4,8-tetrahydroimidazo[1,5-a]pyrimidin-6-amine]	290
NC1=NC(c2cccc(-c3cncnc3)c2)(c2ccncc2F)C2=NCC(F)(F)CN12 (stereo not shown) [Example 91, 3,3-Difluoro-8-(3-fluoropyridin-4-yl)-8-(3-pyrimidin-5-ylphenyl)-2,3,4,8-tetrahydroimidazo[1,5-a]pyrimidin-6-amine]	440

Results, then the compound that gave them:

IC50 [nM]	SMILES
68	COc1cccc(-c2cccc(C3(c4ccncc4)N=C(N)N4CC(F)(F)CN=C43)c2)c1 (stereo not shown) [Example 72, 3,3-Difluoro-8-(3′-methoxybiphenyl-3-yl)-8-pyridin-4-yl-2,3,4,8-tetrahydroimidazo[1,5-a]pyrimidin-6-amine 1.25 acetate]
61	NC1=NC(c2ccncc2)(c2cccc(-c3cc(Cl)cnc3F)c2)C2=NCC(F)(F)CN12 (stereo not shown) [Example 73, 3,3-Difluoro-8-[3-(5-Chloro-2-fluoropyridin-3-yl)phenyl]-8-pyridin-4-yl-2,3,4,8-tetrahydroimidazo[1,5-a]pyrimidin-6-amine acetate]
48	COc1cncc(-c2cc(C3(c4ccncc4)N=C(N)N4CC(F)(F)CN=C43)ccc2F)c1 (stereo not shown) [Example 83, 3,3-Difluoro-8-[4-fluoro-3-(5-methoxypyridin-3-yl)phenyl]-8-pyridin-4-yl-2,3,4,8-tetrahydroimidazo[1,5-a]pyrimidin-6-amine 0.5 acetate]
